Consider two molecules from patent US20040241818A1, “Assay” (priority 2000, published 2004).

This assay has as its target T1, truncated Itk (Homo sapiens, UniProt Q08881).
T1 construct: fused on or other part: added start methionine
T1 sequence (Q08881 171-615 limits assumed): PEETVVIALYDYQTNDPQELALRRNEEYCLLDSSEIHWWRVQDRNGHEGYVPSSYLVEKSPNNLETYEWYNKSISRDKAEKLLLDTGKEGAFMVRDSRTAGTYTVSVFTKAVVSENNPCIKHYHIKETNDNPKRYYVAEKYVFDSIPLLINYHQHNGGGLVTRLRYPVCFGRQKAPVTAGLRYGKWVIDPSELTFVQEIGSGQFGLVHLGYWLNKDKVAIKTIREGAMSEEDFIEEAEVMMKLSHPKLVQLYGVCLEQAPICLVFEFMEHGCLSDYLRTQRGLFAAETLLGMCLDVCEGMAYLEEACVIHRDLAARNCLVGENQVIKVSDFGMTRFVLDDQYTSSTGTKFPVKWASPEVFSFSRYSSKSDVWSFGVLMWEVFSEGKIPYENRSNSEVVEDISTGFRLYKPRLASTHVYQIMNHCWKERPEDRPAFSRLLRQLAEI
Briefly: Truncated Itk kinase assay (HTRF). Format: biochemical. Particulars: UK:ITK, 0.05 mM ATP, 15 min pre-incubation. As for the experimental part: The 100 000 g supernatant was stored at −85° C. Stored lysates were thawed on ice, ATP and MgCl2 (0.1 mM and 10 mM) were added. Following incubation on ice the kinase was diluted in 40 mM HEPES (pH 7.4). The kinase reaction mixture contained 40 mM HEPES (pH 7.4). 10 mM MgCl2, 0.05 mM ATP, 0.0005 mM peptide (Biotin-[…]). The reaction was stopped by the addition of EDTA (25 mM). […] An increase in the level of fluorescence indicates an increase in kinase activity.
Compound Testing in Kinase Assay
Substrates (ATP, src-peptide) added
Reaction stopped with EDTA
HTRF reagents (APC, Eu labelled antibody (antiPY antibody)) added
Read signal on plate reader
(TR-FRET usually uses a lanthanide donor and a delayed reading to cut background.)

[1] abbreviates: PIC50 is -log10 IC50 in molar, read-out: Average PIC50 (converted).

Read-outs that look alike come from different tables or passages of the source.

On to `O=c1c(O)c(-c2cc(O)c(O)c(O)c2)oc2cc(O)cc(O)c12`, for which the IC50 (read-out: Average IC50) worked out at 1.66 µM and the IC50 under setting [1] is 1.66 µM.

In the case of `CNc1ccc(-c2cc(=O)c3c(O)cc(O)cc3o2)cc1`, the IC50 is 0.813 µM (read-out: Average IC50) and 0.813 µM under setting [1].
